Series [1] can be described thus: rate of hydrolysis by following the rate of appearance of aspirin in solution by high pressure liquid chromatography. It counts as physicochemical. The following applies: HPLC; pH and temperature not given. As to the method: The rate of hydrolysis of 1-O-(2'-acetoxy)benzoyl-α-D-glucopyranose, i.e., the compound of the formula [drawing 4] was determined by following the rate of appearance of aspirin in a solution by high pressure liquid chromatography.

For series [2] the following is noted: cited from earlier work.
Series [3] can be described thus: rate of generation of aspirin via hydrolysis, determined spectrophotometrically at 285 nm. The settings on record: for half-life: buffer, read-out: half-life of hydrolysis to aspirin (t1/2); for half-life / half-life of hydrolysis to aspirin (t1/2): average of three determinations. It counts as physicochemical. On the procedure: Therefore, the decrease in absorbance of a solution containing both the prodrug of this invention and aspirin observed at 285 nanometers upon adjustment of the pH to a value of six is proportional to the amount of aspirin in the solution.
Accordingly, the rate of generation of aspirin via hydrolysis of the derivative of the present invention was determined spectrophotometrically at 285 nm. Solutions of 1-O-(2'-acetoxy)benzoyl-α-D-2-deoxyglucopyranose in a buffered solution containing 5 mg/ml were freshly prepared and maintained at constant temperature in a circulating waterbath. […] Buffers employed were hydrochloric acid (pH 1 to 2), citrate (pH 3), acetate (pH 4 to 6) and phosphate (pH 7-9). Ionic strength was adjusted with potassium chloride (usually to 0.1). The change in absorbance at 285 nm was followed until no change in absorbance was observed. First order plots were constructed by plotting log (At -A.infin.) agains time. The effect of pH on the rate of hydrolysis was determined using solutions ranging from pH 1.2 to pH 9.
*Each halflife is the average of three determinations.

SMILES strings stand for the structures.

Take `CC(=O)Oc1ccccc1C(=O)O[C@H]1O[C@H](CO)[C@@H](O)[C@H](O)[C@H]1O` [1-O-(2'-acetoxy)benzoyl-α-D-glucopyranose]: in series [1], the half-life was 55 h. Besides, the hydrolysis product entry in series [2] (reaction scheme (II)) was “tends to hydrolyze so as to form the corresponding sugar derivative of salicylic acid”. Moreover, the “rate of hydrolysis to aspirin” value in series [2] (to the extent that hydrolysis to aspirin takes place) is listed as “very slow rate”.
In the case of `CC(=O)Oc1ccccc1C(=O)O[C@@H]1C[C@@H](O)[C@H](O)[C@@H](CO)O1` [1-O-(2'-acetoxy)benzoyl-α-D-2-deoxyglucopyranose], the half-life stood at 7 min in series [3] (pH 3, pH 3, 37° C); 7.1 min in series [3] (pH 4.6, pH 4.6, 37° C); 7 min in series [3] (pH 8, pH 8, 37° C); 7 min in series [3] (pH 9, pH 9, 37° C). In addition, the “half-life of hydrolysis to aspirin (t1/2)” value in series [3] (pH 6.4, 37° C) is 7.0 min; in series [3] (pH 8, 37° C) it was 7.02 min. Further, the “effect of pH on the generation of aspirin from the derivative” value in series [3] (solutions ranging from pH 1.2 to pH 9) is listed as “independent of the pH of the solutions”.

The values above are taken from patent publication US4242330A, “Derivative of aspirin” (The University of Kentucky Research Foundation, priority 1979, dated 1980).
